Consider six molecules from patent US20260250273A1, “CRYSTAL FORM OF COMPOUND, AND PHARMACEUTICAL COMPOSITION AND USE THEREOF” (SHENZHEN KEYE LIFE TECHNOLOGIES CO., LTD, priority 2023, published 2026).

Series [1] is described as follows: Crystal form conversion of wet samples on air-drying at room temperature (XRPD). Type of series: physicochemical. As to conditions: for Crystal form after air-drying: air-dried at room temperature for 1 d; for Stability of the crystal form: crystalline wet solid.
A short description of series [2]: Suspension competition experiment between anhydrous crystal form A and anhydrous crystal form C (XRPD). Type of series: physicochemical. As to conditions: for Relative stability of crystal forms concluded from suspension competition: room temperature to 50 °C.
In series [3] the target is T1, DHX33 (Homo sapiens, UniProt Q9H6R0).
T1 sequence (Q9H6R0 1-707): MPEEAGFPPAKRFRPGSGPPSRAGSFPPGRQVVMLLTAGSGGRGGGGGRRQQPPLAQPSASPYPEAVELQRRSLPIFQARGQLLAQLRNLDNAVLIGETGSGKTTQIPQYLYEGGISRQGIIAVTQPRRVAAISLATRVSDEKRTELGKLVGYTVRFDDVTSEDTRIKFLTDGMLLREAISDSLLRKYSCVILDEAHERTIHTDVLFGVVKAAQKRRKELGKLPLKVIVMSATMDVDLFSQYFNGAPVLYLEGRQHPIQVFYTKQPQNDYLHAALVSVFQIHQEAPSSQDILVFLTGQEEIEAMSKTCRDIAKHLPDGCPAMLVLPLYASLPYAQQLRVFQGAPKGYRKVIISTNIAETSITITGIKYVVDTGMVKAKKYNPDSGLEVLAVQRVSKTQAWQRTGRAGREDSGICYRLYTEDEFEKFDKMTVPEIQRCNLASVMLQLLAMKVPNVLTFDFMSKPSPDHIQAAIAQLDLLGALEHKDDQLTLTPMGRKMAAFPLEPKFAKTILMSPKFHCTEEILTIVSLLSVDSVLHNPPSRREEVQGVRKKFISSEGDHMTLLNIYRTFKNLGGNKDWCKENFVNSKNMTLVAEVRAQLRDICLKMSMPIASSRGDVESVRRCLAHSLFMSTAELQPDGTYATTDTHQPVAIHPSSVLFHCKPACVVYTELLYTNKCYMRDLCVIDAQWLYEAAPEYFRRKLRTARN
Particulars: background statement, no data; cited from earlier work.

The nature of series [4]: Heating experiment and variable temperature XRPD (VT-XRPD). Type of series: physicochemical. As to conditions: heated to 120 °C.
A short description of series [5]: High-temperature stability (HPLC purity, XRPD). The class given is physicochemical. As to conditions: 60 °C, 10 d; for Purity (Area %): HPLC, initial purity 99.55 (form A), 99.84 (form C).
Series [6] is described as follows: Solid-form stability under long-term and accelerated conditions (HPLC purity, XRPD). Type of series: physicochemical. As to conditions: 10 d; for Physical and chemical stability: 25 °C/60% RH and 40 °C/75% RH; for Purity (Area %): HPLC, initial purity 99.55 (form A), 99.84 (form C).
The nature of series [7]: Hygroscopicity evaluation (DVS test, XRPD after DVS). Type of series: physicochemical. As to conditions: for Sample weight change at 80% RH (%): DVS, 25 °C; for Whether crystal form changes before and after test: XRPD before and after DVS test; for Hygroscopicity: weight gain when humidity rises to 80% RH at 25 °C, Chinese Pharmacopoeia (2020 Edition).
Setting [8] is: listed as anhydrous crystal form A.
[9] abbreviates: listed as anhydrous crystal form C.

SMILES strings stand for the structures.

Take `COc1ccc2nc(NC(=O)c3cc(C)n(-c4sc(C)cc4C#N)c3C)[nH]c2c1` [crystal form B, 1-(3-cyano-5-methylthiophen-2-yl)-N-(6-methoxy-1H-benzo[d]imidazol-2-yl)-2,5-dimethyl-1H-pyrrole-3-carboxamide]: in series [1], the “Crystal form after air-drying” value is “converted into the anhydrous crystal form A” and the “Stability of the crystal form” value is listed as “metastable form”. Further, in series [2], the “Relative stability of crystal forms concluded from suspension competition” value was “relatively more stable in the case of the wet sample”.
Turning to `COc1ccc2nc(NC(=O)c3cc(C)n(-c4sc(C)cc4C#N)c3C)[nH]c2c1` [compound of Formula (1), 1-(3-cyano-5-methylthiophen-2-yl)-N-(6-methoxy-1H-benzo[d]imidazol-2-yl)-2,5-dimethyl-1H-pyrrole-3-carboxamide], the “Inhibiting the RNA helicase activity of DHX33” value in series [3] was “capable of inhibiting the RNA helicase activity of DHX33”.
For `COc1ccc2nc(NC(=O)c3cc(C)n(-c4sc(C)cc4C#N)c3C)[nH]c2c1` [crystal form D, 1-(3-cyano-5-methylthiophen-2-yl)-N-(6-methoxy-1H-benzo[d]imidazol-2-yl)-2,5-dimethyl-1H-pyrrole-3-carboxamide], in series [1], the “Crystal form after air-drying” value is on record as “converted into the anhydrous crystal form C” and the “Stability of the crystal form” value is “metastable form”.
Turning to `COc1ccc2nc(NC(=O)c3cc(C)n(-c4sc(C)cc4C#N)c3C)[nH]c2c1` (single isomer, unassigned) [Anhydrous crystal form A, 1-(3-cyano-5-methylthiophen-2-yl)-N-(6-methoxy-1H-benzo[d]imidazol-2-yl)-2,5-dimethyl-1H-pyrrole-3-carboxamide], in series [4] (XRPD in situ, then cooled to room temperature), the “Crystal form in VT-XRPD analysis” value is “crystal form remained unchanged”. The “Crystal form in heating experiment” value in series [4] (maintained for 5 min, cooled to room temperature) is reported as “crystal form remained unchanged”. Besides, in series [5], the “Crystal form Change” value is reported as “No”; the “Physical and chemical stability” value was “good physical and chemical stability”; the “Purity (Area %)” value was found to be 99.63 Area %. Besides, the “Physical and chemical stability” value in series [6] was “good physical and chemical stability”. Also, in series [6] (25 °C/60% RH), the “Crystal form Change” value was “No” and the “Purity (Area %)” value turned out to be 99.67 Area %. In series [6] (40 °C/75% RH), the “Crystal form Change” value is recorded as “No” and the “Purity (Area %)” value came to 99.60 Area %. Moreover, in series [2], the “Relative stability of crystal forms concluded from suspension competition” value is given as “more thermodynamically stable anhydrous form”. In addition, in series [7], the “Sample weight change at 80% RH (%)” value came out at 3.24%; the “Whether crystal form changes before and after test” value is “No”; the Hygroscopicity result is recorded as “slight hygroscopicity”. Further, in series [7] (setting [8]), the “Sample weight change at 80% RH (%)” value worked out at 3.24%; the “Whether crystal form changes before and after test” value is “no changes in crystal form”.
On to `COc1ccc2nc(NC(=O)c3cc(C)n(-c4sc(C)cc4C#N)c3C)[nH]c2c1`, for which the “Competition for 1 d (XPRD)” value in series [2] (EtOH, 50 °C, saturated solution of Compound (1), resulting crystal form) is recorded as “crystal form B”. For the same molecule, the “Competition for 2 d (XPRD)” value in series [2] (IPAc, RT, saturated solution of Compound (1), resulting crystal form) was “crystal form B”.
Consider `COc1ccc2nc(NC(=O)c3cc(C)n(-c4sc(C)cc4C#N)c3C)[nH]c2c1` (single isomer, unassigned) [Anhydrous crystal form C, 1-(3-cyano-5-methylthiophen-2-yl)-N-(6-methoxy-1H-benzo[d]imidazol-2-yl)-2,5-dimethyl-1H-pyrrole-3-carboxamide], for which the “Crystal form after air-drying” value in series [1] is reported as “converted into the anhydrous crystal form A”. Further, in series [5], the “Crystal form Change” value is reported as “No”; the “Physical and chemical stability” value was “good physical and chemical stability”; the “Purity (Area %)” value came out at 99.86 Area %. The “Physical and chemical stability” value in series [6] is “good physical and chemical stability”. In series [6] (25 °C/60% RH), the “Crystal form Change” value was “No” and the “Purity (Area %)” value is reported as 99.87 Area %. Also, in series [6] (40 °C/75% RH), the “Crystal form Change” value is “No” and the “Purity (Area %)” value amounted to 99.90 Area %. Besides, in series [7], the “Sample weight change at 80% RH (%)” value is on record as 3.71%; the “Whether crystal form changes before and after test” value is given as “No”; the Hygroscopicity result was “slight hygroscopicity”. Moreover, in series [7] (setting [9]), the “Sample weight change at 80% RH (%)” value is 3.71%; the “Whether crystal form changes before and after test” value is recorded as “no changes in crystal form”.
